In article PMC5995839, “Exploring the role of unnatural amino acids in antimicrobial peptides” (Scientific Reports, 2018):
Converted amounts (≈) assume the structure as drawn. Square brackets hold non-standard residues; d marks the D form. Peptide text beside a SMILES is read from it. * marks the point of attachment. 2Nal = N[C@@H](Cc1ccc2ccccc2c1)C(=O)O; Ahx = NCCCCCC(=O)O; StBu = CC(C)(C)S*; tBu = CC(C)(C)*

Legend:
[1] = tested on: Escherichia coli ATCC 25922; format: cell-based
Method: The antimicrobial activity of the three designed peptides was tested against Escherichia coli (ATCC® 25922™), Pseudomonas aeruginosa (ATCC® 27853™), Pseudomonas aeruginosa PAO1 wild type strain, Bacillus subtilis subsp. spizizenii (ATCC® 6633™), Staphylococcus aureus (ATCC® 6538 P™) and Staphylococcus aureus MRSA WKZ-2 (kindly provided by collection of Prof. Edwin Veldhuizen, University of Utrecht, Holland). MIC assays were performed by broth microdilution method as described elsewhere[34] using Nutrient Broth (Becton Dickinson Difco, Franklin Lakes, NJ) as bacterial growth medium. […] Experiments were performed three times for each peptide.
Following the incubation time, MIC assays were carried out as previously described. […] Experiments were performed five times for each peptide.

[2] = tested on: Staphylococcus aureus (ATCC 6538P); format: cell-based
[3] = tested on: Staphylococcus aureus MRSA WKZ-2; format: cell-based
Method: (§2) MIC assays were performed by broth microdilution method as described elsewhere[34] using Nutrient Broth (Becton Dickinson Difco, Franklin Lakes, NJ) as bacterial growth medium. […] Experiments were performed three times for each peptide.

[4] = tested on: Escherichia coli (ATCC 25922); format: cell-based
Method: as §2

[5] = tested on: Bacillus subtilis subsp. spizizenii (ATCC 6633); format: cell-based
Method: as §2

[6] = tested on: Pseudomonas aeruginosa (ATCC 27853); format: cell-based
Method: as §2

[7] = tested on: Pseudomonas aeruginosa PAO1 wild type strain; format: cell-based
Method: as §2

[8] = tested on: human keratinocytes cells HaCaT; format: cell-based
Method: (§1) Cytotoxic effects of the three peptides on human epithelial colorectal adenocarcinoma cells (CaCo-2) and on aneuploid immortal keratinocyte cells line from adult human skin (HaCaT) were assessed by performing the (3-(4,5-dimethylthiazol-2-yl)−2,5 diphenyltetrazolium bromide (MTT) reduction inhibition assay. Both human cell lines were obtained from the American Type Culture Collection (ATCC, Manassas, VA, USA) and grown at 37 °C in a humidified incubator containing 5% CO2 in Dulbecco’s modified Eagle’s medium (DMEM) supplemented with 10% fetal bovine serum, 4 mM glutamine, 400 units/mL penicillin, and 0.1 mg mL^−1 streptomycin. Cells were plated on 96-well plates at a density of 5 × 10^3 per well in 100 μL of medium and incubated at 37 °C with 5% CO2. Medium was then replaced with 100 μl of fresh media containing peptide solution to a final concentration ranging from 0.1–10 μM/well. After a time of incubation ranging from 18 to 48 hours at 37 °C, the peptide-containing medium was removed, and 10 μL of a 5 mg mL^−1 MTT stock solution in DMEM without red phenol, corresponding to a final concentration of […] in DMEM (final volume of 100 μL), was added to the cells. […] Cell survival was reported as the relative absorbance, with respect to control, of blue formazan measured at 570 nm with a Synergy Multi Plate Reader. […]

[9] = tested on: human intestinal CaCo-2 cells; format: cell-based
Method: as §1

[10] = Relative hydrophobicity by retention in reverse phase HPLC; format: physicochemical; conditions: chromatographic, Fig. S4 and Table S1 (numbers not available here)
Method: Crude peptides were purified by preparative HPLC on a Shimadzu LC-8A system. A Vydac C18 column (22 mm × 250 mm; 10 μm) was used, eluted with a H2O 0.1% TFA, (eluent A) and CH3CN 0.1% TFA (eluent B) linear gradient at 22 mL min^−1 flow rate. Fractions were separated according to their absorbance at 210 nm by an online UV detector (Shimadzu). Peptide fractions were then checked for their purity by analytical LCMS. Peptide identities were confirmed by LCMS analysis on a Shimadzu 20ADxr coupled with a Shimadzu ESI-IT-TOF mass detector (probe voltage 4.5 kV; probe temperature 25 °C; desolvation temperature 250 °C; detector voltage 1.5 kV). All analyses were performed with a Vydac C18 column (2.1 mm × 100 mm; 5 μm), eluted with a H2O 0.05% TFA, (eluent A) and CH3CN 0.05% TFA (eluent B) linear gradient, from 5% to 95% (solvent B), over 30 minutes, at 0.2 ml min^−1 flow rate. Pure fractions were pooled and lyophilized as TFA salts (purity >95%). Peptide samples for biological assays were further subjected to counter ion exchange on a DEAE-Sephadex weak […] resin. Briefly, peptide solutions in water were loaded on a 0.5 mL syringe column, and then eluted by decreasing the pH with an acetate buffer at pH 4.3 to obtain the desired peptide acetate salt. Further, the relative hydrophobicities of P9 peptides were evaluated through their retention in reverse phase HPLC.

| Compound | Fold change (16 h) [1] | Fold change (1 h) [1] | MIC, Preincubation for 1 h in 10% serum ([1]; E. coli ATCC 25922, peptide incubated 1 h in 10% fetal bovine serum at 37 °C before MIC assay, five replicates) | MIC, S. aureus ATCC6538P [2] [µM] | MIC, S. aureus MRSA [3] [µM] | MIC, E. coli ATCC25922 [4] [µM] | MIC, B. spizizenii ATCC6633 [5] [µM] | MIC, P. aeruginosa ATCC27853 [6] [µM] | MIC, PAO1 Wt [7] [µM] | toxic effects on HaCaT cells at low doses [8] | toxic effect on CaCo2 cells at low doses, compared with HaCaT [9] | relative hydrophobicity (retention in reverse phase HPLC) [10] |
| --- | --- | --- | --- | --- | --- | --- | --- | --- | --- | --- | --- | --- |
| CC(=O)N[C@@H](CC(C)C)C(=O)N[C@@H](CCCNC(=N)N)C(=O)N[C@H](C(=O)N[C@@H](CCCNC(=N)N)C(=O)N[C@@H](CC(C)C)C(=O)N[C@@H](C)C(=O)N[C@@H](CO)C(=O)N[C@@H](Cc1c[nH]cn1)C(=O)N[C@@H](CC(C)C)C(=O)N[C@@H](CCCNC(=N)N)C(=O)N[C@@H](CCCCN)C(=O)N[C@@H](CC(C)C)C(=O)N[C@@H](CCCNC(=N)N)C(=O)N[C@@H](CCCCN)C(=O)N[C@@H](CCCNC(=N)N)C(=O)N[C@@H](CC(C)C)C(=O)N[C@@H](CC(C)C)C(=O)N[C@@H](CCCNC(=N)N)C(N)=O)C(C)C [Ac-ApoE(133–150)-NH2, reference compound] | >16 |  |  |  |  |  |  |  |  |  |  |  |
| CC(C)C[C@H](NC(=O)[C@H](CCCNC(=N)N)NC(=O)[C@@H](NC(=O)[C@H](CCCNC(=N)N)NC(=O)[C@@H](N)CC(C)C)C(C)C)C(=O)N[C@@H](C)C(=O)N[C@@H](CO)C(=O)N[C@@H](Cc1c[nH]cn1)C(=O)N[C@@H](CC(C)C)C(=O)N[C@@H](CCCNC(=N)N)C(=O)N[C@@H](CCCCN)C(=O)N[C@@H](CC(C)C)C(=O)N[C@@H](CCCNC(=N)N)C(=O)N[C@@H](CCCCN)C(=O)N[C@@H](CCCNC(=N)N)C(=O)N[C@@H](CC(C)C)C(=O)N[C@@H](CC(C)C)C(=O)N[C@@H](CCCNC(=N)N)C(=O)O [ApoE(133–150), reference compound] | >16 | >16 | completely lost antimicrobial activity |  |  |  |  |  |  |  |  |  |
| CC(C)(C)SC[C@H](NC(=O)CCCCCN)C(=O)N[C@@H](CCCCN)C(=O)N[C@@H](Cc1ccc2ccccc2c1)C(=O)N[C@@H](Cc1ccc2ccccc2c1)C(=O)N[C@@H](CCCCN)C(=O)N[C@@H](CCCCN)C(=O)N[C@@H](CSC(C)(C)C)C(=O)NCCCCCC(N)=O [P9Nal(SR)] (H-[Ahx]C(tBu)K[2Nal][2Nal]KKC(tBu)[Ahx]-NH2) | >8 | 1 |  | 40 (≈ 53.6 µg/mL) | 40 (≈ 53.6 µg/mL) | 10 (≈ 13.4 µg/mL) | 40 (≈ 53.6 µg/mL) | 1.25 (≈ 1.68 µg/mL) | 10 (≈ 13.4 µg/mL) | no evident toxic effects | slightly higher |  |
| CC(C)(C)SSC[C@H](NC(=O)CCCCCN)C(=O)N[C@@H](CCCCN)C(=O)N[C@@H](Cc1ccc2ccccc2c1)C(=O)N[C@@H](Cc1ccc2ccccc2c1)C(=O)N[C@@H](CCCCN)C(=O)N[C@@H](CCCCN)C(=O)N[C@@H](CSSC(C)(C)C)C(=O)NCCCCCC(N)=O [P9Nal(SS)] (H-[Ahx]C(StBu)K[2Nal][2Nal]KKC(StBu)[Ahx]-NH2) |  | 1 |  | 10 (≈ 14 µg/mL) | 20 (≈ 28.1 µg/mL) | 10 (≈ 14 µg/mL) | 10 (≈ 14 µg/mL) | 2.5 (≈ 3.51 µg/mL) | 10 (≈ 14 µg/mL) |  |  | most hydrophobic |
| CC(C)(C)SSC[C@H](NC(=O)CCCCCN)C(=O)N[C@@H](CCCCN)C(=O)N[C@@H](Cc1c[nH]c2ccccc12)C(=O)N[C@@H](Cc1c[nH]c2ccccc12)C(=O)N[C@@H](CCCCN)C(=O)N[C@@H](CCCCN)C(=O)N[C@@H](CSSC(C)(C)C)C(=O)NCCCCCC(N)=O [P9Trp(SS)] (H-[Ahx]C(StBu)KWWKKC(StBu)[Ahx]-NH2) |  | 1 |  | 20 (≈ 27.7 µg/mL) | 40 (≈ 55.3 µg/mL) | 10 (≈ 13.8 µg/mL) | 40 (≈ 55.3 µg/mL) | 2.5 (≈ 3.46 µg/mL) | 10 (≈ 13.8 µg/mL) |  |  |  |
